# In ChEMBL document CHEMBL5465560, “Selectivity Literature for EUbOPEN Chemogenomic Library” (2024):
# Legend:
# Ephrin type-A receptor 4 = Ephrin type-A receptor 4 (Homo sapiens, UniProt P54764); details: at 10 µM
# [1] = molecular target: T1, Phosphatidylinositol 5-phosphate 4-kinase type-2 gamma (Homo sapiens) (UniProt Q8TBX8); assay: Selectivity interaction (KinomeScan (DiscoverX)) EUB0000045b PIP4K2C; details: at 1 µM
# T1 sequence (whole entry): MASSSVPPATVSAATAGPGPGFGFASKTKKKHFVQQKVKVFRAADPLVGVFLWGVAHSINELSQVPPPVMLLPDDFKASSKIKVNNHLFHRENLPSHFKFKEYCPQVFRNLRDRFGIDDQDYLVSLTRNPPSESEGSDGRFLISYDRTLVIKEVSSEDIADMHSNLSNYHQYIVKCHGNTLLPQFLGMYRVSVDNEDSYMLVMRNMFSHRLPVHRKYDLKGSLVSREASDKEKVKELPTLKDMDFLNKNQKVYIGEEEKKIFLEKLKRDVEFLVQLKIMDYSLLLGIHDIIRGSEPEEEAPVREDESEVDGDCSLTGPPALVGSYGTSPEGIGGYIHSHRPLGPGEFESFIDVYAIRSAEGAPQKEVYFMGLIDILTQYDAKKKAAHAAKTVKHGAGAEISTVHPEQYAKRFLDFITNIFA
# [2] = molecular target: Receptor-interacting serine/threonine-protein kinase 2 (Homo sapiens, UniProt O43353); assay: Selectivity interaction (KinomeScan (DiscoverX)) EUB0000695a RIPK2; details: at 100 nM
# [3] = molecular target: Bone morphogenetic protein receptor type-1A (Homo sapiens, UniProt P36894); assay: Selectivity interaction (KinomeScan (DiscoverX)) EUB0001079a BMPR1A; details: at 1 µM
# [4] = molecular target: Serine/threonine-protein kinase N2 (Homo sapiens, UniProt Q16513); assay: Selectivity interaction (LanthaScreen Eu Kinase Binding Assay) EUB0001632a PKN2; details: at 10 µM
# Serine/threonine-protein kinase N2, sequence (Q16513 whole entry, looked up): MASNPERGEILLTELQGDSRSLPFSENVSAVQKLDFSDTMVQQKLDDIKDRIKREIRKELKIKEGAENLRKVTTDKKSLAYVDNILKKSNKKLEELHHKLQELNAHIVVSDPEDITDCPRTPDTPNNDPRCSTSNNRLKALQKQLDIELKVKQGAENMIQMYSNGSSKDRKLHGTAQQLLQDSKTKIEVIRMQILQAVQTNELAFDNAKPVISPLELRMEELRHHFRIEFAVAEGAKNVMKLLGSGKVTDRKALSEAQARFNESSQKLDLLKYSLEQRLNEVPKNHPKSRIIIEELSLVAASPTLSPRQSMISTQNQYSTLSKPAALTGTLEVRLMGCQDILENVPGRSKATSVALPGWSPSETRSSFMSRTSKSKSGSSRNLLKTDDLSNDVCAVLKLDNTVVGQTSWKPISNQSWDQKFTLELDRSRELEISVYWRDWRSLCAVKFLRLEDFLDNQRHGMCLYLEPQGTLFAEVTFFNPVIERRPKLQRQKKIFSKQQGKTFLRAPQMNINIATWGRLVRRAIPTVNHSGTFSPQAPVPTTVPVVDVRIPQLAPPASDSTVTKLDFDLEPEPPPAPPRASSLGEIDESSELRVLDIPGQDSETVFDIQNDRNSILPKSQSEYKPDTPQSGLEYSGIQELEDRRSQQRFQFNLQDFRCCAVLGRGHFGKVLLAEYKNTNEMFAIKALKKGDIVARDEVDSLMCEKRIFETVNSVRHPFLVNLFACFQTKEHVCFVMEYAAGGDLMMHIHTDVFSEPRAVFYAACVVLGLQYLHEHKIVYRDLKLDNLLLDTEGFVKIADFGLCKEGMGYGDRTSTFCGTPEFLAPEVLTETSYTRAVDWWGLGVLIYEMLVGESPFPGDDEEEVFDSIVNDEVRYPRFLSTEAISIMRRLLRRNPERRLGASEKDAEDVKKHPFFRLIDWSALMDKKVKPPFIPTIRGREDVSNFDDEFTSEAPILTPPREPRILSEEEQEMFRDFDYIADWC
# [5] = molecular target: Tyrosine-protein kinase Fgr (Homo sapiens) (UniProt P09769); assay: Selectivity interaction (KinomeScan (DiscoverX)) EUB0000666a FGR; details: at 10 µM
# [6] = molecular target: Protein polybromo-1 (Homo sapiens) (UniProt Q86U86); assay: Selectivity interaction (Bromodomain panel (DSF asssay)) EUB0000270b PBRM1
# Protein polybromo-1 (Homo sapiens), sequence (Q86U86 whole entry): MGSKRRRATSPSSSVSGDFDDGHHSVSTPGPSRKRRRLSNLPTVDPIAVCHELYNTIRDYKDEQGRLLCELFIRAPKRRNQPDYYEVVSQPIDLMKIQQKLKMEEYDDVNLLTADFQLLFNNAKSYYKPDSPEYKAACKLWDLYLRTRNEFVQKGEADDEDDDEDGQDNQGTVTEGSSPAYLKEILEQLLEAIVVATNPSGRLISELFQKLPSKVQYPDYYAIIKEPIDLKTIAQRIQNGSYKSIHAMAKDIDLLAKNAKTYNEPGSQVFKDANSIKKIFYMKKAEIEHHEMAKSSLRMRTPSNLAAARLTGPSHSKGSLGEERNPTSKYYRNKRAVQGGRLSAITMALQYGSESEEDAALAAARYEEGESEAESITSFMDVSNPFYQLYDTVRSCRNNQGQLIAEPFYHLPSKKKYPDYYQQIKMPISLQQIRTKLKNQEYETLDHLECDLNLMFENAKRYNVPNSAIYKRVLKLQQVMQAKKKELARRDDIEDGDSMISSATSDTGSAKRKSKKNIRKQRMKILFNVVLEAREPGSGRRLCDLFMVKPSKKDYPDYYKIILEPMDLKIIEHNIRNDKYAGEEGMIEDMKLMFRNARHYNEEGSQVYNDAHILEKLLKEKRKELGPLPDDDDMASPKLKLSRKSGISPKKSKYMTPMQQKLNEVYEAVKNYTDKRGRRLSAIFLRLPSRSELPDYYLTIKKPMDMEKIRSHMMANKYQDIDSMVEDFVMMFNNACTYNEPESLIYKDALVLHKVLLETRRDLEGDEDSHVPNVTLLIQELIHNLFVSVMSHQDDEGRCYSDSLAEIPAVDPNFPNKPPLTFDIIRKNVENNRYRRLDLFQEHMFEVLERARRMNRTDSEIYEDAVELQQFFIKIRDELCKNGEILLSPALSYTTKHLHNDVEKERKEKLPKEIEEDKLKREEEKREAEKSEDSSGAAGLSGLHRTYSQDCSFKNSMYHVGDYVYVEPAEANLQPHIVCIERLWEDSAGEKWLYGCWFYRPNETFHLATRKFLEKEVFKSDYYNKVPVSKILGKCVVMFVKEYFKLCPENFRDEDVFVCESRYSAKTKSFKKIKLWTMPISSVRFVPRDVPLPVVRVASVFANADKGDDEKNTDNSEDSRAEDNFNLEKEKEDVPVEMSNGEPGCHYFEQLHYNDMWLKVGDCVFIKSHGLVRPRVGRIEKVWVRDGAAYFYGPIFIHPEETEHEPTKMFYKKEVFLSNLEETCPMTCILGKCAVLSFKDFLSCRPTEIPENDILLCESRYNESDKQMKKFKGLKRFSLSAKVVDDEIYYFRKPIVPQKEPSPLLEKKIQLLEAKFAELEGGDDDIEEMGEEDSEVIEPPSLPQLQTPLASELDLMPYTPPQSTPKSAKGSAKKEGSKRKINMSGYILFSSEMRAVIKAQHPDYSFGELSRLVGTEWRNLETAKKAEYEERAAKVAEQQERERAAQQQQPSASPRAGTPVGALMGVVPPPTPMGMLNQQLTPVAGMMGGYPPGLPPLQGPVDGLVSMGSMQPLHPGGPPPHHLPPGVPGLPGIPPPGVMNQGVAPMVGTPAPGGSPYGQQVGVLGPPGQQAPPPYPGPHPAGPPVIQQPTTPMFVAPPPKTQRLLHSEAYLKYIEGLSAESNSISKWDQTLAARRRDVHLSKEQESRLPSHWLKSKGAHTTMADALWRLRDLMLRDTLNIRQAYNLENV
# [7] = molecular target: T2, Inhibitor of nuclear factor kappa-B kinase subunit alpha (Homo sapiens) (UniProt O15111); assay: Selectivity interaction (KinomeScan (DiscoverX)) EUB0001049a CHUK; details: at 1 µM
# T2 sequence (whole entry): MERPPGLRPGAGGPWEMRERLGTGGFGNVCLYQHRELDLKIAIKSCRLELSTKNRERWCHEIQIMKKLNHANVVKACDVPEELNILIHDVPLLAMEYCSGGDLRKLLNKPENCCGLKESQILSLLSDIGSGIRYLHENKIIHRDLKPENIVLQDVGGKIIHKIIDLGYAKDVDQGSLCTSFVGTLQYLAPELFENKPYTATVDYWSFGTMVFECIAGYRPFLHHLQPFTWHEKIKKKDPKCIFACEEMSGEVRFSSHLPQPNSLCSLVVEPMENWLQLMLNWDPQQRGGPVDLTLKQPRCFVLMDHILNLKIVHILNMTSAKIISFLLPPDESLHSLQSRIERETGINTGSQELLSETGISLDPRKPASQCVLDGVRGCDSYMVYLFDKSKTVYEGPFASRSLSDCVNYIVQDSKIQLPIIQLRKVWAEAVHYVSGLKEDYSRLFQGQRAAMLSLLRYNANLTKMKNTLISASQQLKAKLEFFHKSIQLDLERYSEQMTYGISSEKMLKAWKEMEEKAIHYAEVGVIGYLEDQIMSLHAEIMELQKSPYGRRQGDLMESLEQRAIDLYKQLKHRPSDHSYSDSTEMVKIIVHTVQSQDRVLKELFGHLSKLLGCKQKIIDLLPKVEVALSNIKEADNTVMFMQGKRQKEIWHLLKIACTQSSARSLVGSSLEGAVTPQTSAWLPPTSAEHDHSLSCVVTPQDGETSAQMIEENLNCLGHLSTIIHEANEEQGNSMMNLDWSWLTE
# [8] = molecular target: Tyrosine-protein kinase CSK (Homo sapiens) (UniProt P41240); assay: Selectivity interaction (Millipore kinase profiler) EUB0000124b CSK; details: at 10 µM
# [9] = molecular target: Serine/threonine-protein kinase MRCK alpha (Homo sapiens) (UniProt Q5VT25); assay: Selectivity interaction (ProQinase) EUB0000171b CDC42BPA
# Serine/threonine-protein kinase MRCK alpha (Homo sapiens), sequence (Q5VT25 whole entry): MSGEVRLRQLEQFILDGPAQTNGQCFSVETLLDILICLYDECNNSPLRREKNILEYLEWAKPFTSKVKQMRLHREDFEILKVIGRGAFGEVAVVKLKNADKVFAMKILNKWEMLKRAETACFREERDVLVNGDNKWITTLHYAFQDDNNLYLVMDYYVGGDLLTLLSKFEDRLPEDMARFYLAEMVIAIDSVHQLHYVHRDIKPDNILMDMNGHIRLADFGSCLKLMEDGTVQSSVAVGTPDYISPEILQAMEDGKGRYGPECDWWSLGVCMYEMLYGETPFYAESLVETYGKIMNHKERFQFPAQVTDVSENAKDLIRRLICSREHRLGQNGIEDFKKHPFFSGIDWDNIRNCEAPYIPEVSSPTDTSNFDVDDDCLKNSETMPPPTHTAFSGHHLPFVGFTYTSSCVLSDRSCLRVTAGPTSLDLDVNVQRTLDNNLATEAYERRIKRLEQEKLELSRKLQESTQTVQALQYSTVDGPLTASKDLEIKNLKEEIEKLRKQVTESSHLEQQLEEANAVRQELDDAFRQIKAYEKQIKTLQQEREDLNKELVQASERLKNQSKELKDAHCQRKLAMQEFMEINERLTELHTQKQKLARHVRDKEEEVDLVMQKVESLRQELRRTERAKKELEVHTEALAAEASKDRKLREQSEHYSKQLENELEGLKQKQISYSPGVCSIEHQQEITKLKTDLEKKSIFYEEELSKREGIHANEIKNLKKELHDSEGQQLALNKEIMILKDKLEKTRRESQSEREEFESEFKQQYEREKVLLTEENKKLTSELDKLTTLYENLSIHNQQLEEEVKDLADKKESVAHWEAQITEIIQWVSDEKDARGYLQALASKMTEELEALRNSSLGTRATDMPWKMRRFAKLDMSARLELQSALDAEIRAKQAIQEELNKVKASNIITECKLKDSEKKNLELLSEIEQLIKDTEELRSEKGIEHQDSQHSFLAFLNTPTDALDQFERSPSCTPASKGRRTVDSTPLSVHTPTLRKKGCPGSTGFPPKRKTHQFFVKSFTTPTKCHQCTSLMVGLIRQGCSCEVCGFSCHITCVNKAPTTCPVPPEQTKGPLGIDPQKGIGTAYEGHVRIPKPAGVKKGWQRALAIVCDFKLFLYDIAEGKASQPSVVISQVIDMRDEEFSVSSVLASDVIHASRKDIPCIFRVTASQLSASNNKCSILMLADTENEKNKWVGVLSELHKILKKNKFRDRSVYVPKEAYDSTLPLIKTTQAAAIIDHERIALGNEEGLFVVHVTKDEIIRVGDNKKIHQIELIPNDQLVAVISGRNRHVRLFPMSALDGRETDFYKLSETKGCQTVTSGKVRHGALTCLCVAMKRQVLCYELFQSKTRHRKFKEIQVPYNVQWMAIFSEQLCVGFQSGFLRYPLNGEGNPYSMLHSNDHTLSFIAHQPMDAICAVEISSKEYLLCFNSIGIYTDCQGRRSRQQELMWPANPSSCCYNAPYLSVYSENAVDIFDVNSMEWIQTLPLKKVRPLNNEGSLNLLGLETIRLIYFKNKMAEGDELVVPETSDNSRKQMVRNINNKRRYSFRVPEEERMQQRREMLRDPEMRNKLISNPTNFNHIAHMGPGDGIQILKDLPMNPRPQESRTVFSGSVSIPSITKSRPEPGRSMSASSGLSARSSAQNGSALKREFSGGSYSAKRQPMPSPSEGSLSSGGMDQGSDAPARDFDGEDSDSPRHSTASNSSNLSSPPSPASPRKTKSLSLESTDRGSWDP
# [10] = molecular target: Choline kinase alpha (Homo sapiens) (UniProt P35790); assay: Selectivity interaction (Kinase panel (literature)) EUB0001199aCl CHKA; details: at 1 µM
# [11] = molecular target: Mast/stem cell growth factor receptor Kit (Homo sapiens, UniProt P10721); assay: Selectivity interaction (Kinase panel (Invitrogen)) EUB0000639a KIT; details: at 200 nM
# [12] = molecular target: Protein kinase C gamma type (Homo sapiens) (UniProt P05129); assay: Selectivity interaction (Kinase panel (Invitrogen)) EUB0000639a PRKCG; details: at 200 nM
# [13] = molecular target: T3, Testis-specific serine/threonine-protein kinase 2 (Homo sapiens) (UniProt Q96PF2); assay: Selectivity interaction (Kinase panel (Invitrogen)) EUB0000639a TSSK2; details: at 200 nM
# T3 sequence (whole entry): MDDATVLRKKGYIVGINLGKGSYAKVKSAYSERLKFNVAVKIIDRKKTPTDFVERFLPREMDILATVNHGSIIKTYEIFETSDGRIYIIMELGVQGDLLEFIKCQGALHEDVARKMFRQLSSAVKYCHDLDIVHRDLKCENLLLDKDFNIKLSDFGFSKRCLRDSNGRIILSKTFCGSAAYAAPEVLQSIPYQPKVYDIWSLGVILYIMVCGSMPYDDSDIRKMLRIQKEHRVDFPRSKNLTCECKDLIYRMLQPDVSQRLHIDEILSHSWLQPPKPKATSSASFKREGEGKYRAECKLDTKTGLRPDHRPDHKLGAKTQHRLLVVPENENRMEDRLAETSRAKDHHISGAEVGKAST
compound,measurement,setting,value
COCC(=O)NC/C=C/c1ccc2ncnc(Nc3ccc(Oc4ccc(C)nc4)c(C)c3)c2c1 [CP-724714],% of control,Ephrin type-A receptor 4,98%
C=CC(=O)Nc1cc(-n2c(=O)ccc3cnc4ccc(-c5ccc(NS(C)(=O)=O)cc5)cc4c32)ccc1C,% of control,[1],5.6%
Cc1cc(F)c(C(=O)Nc2cccc(-c3nncn3C(C)C)n2)cc1-n1cnc(C2CC2)c1,% of control,[2],100%
Nc1cnc(N2CCc3cc(S(=O)(=O)Nc4c(F)cc(Cl)cc4F)cc(N4CCCC4=O)c32)nc1 [TP-020n],% of control,[3],91%
Cn1cc(-n2cnc3c(NCc4nc5cc(Cl)c(Cl)cc5[nH]4)nc(N4CCOCC4)nc32)cn1,% of inhibition,[4],-5.46%
O=C(NOC[C@H](O)CO)c1ccc(F)c(F)c1Nc1ccc(I)cc1F,% of control,[5],95%
Cc1cc(CN)cc(C)c1-c1ncn(C)c1-c1cncn1C,dTM,[6],-1.53 K
COc1cc(Nc2nc(C)cc(-c3cnn4nc(OC)ccc34)n2)cc(C(F)(F)F)c1,% of control,[7],95%
CC(=O)Nc1cccc(-n2c(=O)n(C3CC3)c(=O)c3c(Nc4ccc(I)cc4F)n(C)c(=O)c(C)c32)c1,% of control,[8],97%
C=CC(=O)Nc1cccc(C(=O)Nc2ccc(Nc3cc(-c4[nH]c(SC)nc4C)ccn3)cc2)c1,% of control,[9]; at 1 µM,102%
same,% of control,[9]; at 5 µM,91%
CN1Cc2nccc(-c3cn(C)nc3-c3ccc(F)cc3)c2C1=O,% of inhibition,[10],-3%
CC[C@@H]1[C@H](F)C(=O)N[C@@H]1COc1nccc2cc(C(N)=O)c(OC)cc12 [ZIMLOVISERTIB],% of inhibition,[11],2.99%
same,% of inhibition,[12],12.1%
same,% of inhibition,[13],8.34%
